Reference: PubChem BioAssay AID1963835 (Molecular Pharmacology Branch, DTP, NCI, 2024)

Test system: 699152-130-R-J1-PDC complex spheroid viability
Assay: Anticancer human tumor 699152-130-R-J1-PDC patient-derived pancreatic carcinoma cell line growth inhibition [POLQ]
Settings: for IC50: curve of first compound; for viability, T/C: stronger effect = lower value
Method in brief: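 PDC + HUVEC + MSC complex spheroids; POLQ inhibitors ± partner drugs; top conc. at/near clinical Cmax, else 10 microM (SN-38 1 microM), half-log dilutions; 37 degrees C, 5% CO2.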

[1] = second compound 0.0316 µM, first compound 0.00316 µM
[2] = second compound 0.0316 µM, first compound 0.01 µM
[3] = second compound 0.0316 µM, first compound 0.0316 µM
[4] = second compound 0.0316 µM, first compound 0.1 µM
[5] = second compound 0.0316 µM, first compound 0.316 µM
[6] = second compound 0.0316 µM, first compound 1 µM
[7] = second compound 0.1 µM, first compound 0.00316 µM
[8] = second compound 0.1 µM, first compound 0.01 µM
[9] = second compound 0.1 µM, first compound 0.0316 µM
[10] = second compound 0.1 µM, first compound 0.1 µM
[11] = second compound 0.1 µM, first compound 0.316 µM
[12] = second compound 0.1 µM, first compound 1 µM
[13] = second compound 0.316 µM, first compound 0.00316 µM
[14] = second compound 0.316 µM, first compound 0.01 µM
[15] = second compound 0.316 µM, first compound 0.0316 µM
[16] = second compound 0.316 µM, first compound 0.1 µM
[17] = second compound 0.316 µM, first compound 0.316 µM
[18] = second compound 0.316 µM, first compound 1 µM
[19] = second compound 1 µM, first compound 0.00316 µM
[20] = second compound 1 µM, first compound 0.01 µM
[21] = second compound 1 µM, first compound 0.0316 µM
[22] = second compound 1 µM, first compound 0.1 µM
[23] = second compound 1 µM, first compound 0.316 µM
[24] = second compound 1 µM, first compound 1 µM
[25] = second compound 3.16 µM, first compound 0.00316 µM
[26] = second compound 3.16 µM, first compound 0.01 µM
[27] = second compound 3.16 µM, first compound 0.0316 µM
[28] = second compound 3.16 µM, first compound 0.1 µM
[29] = second compound 3.16 µM, first compound 0.316 µM
[30] = second compound 3.16 µM, first compound 1 µM
[31] = second compound 10 µM, first compound 0.00316 µM
[32] = second compound 10 µM, first compound 0.01 µM
[33] = second compound 10 µM, first compound 0.0316 µM
[34] = second compound 10 µM, first compound 0.1 µM
[35] = second compound 10 µM, first compound 0.316 µM
[36] = second compound 10 µM, first compound 1 µM
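Also: spheroids exposed to agents for 7 days before viability reading.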
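For viability, T/C in this document: percent of DMSO vehicle control viability so 100% = vehicle and 0% = no viable signal.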

COc1cccc(OCCCN)c1-c1cc(Nc2cnc(C#N)cn2)n[nH]1 + COC1C(OC(N)=O)C(O)C(Oc2ccc3c(O)c(NC(=O)c4ccc(O)c(CC=C(C)C)c4)c(=O)oc3c2C)OC1(C)C
IC50 (second compound 0.0316 µM): 256 nM
IC50 (second compound 0.1 µM): 524 nM
IC50 (second compound 0.316 µM): 495 nM
IC50 (second compound 1 µM): 297 nM
IC50 (second compound 3.16 µM): > 1000 nM
IC50 (second compound 10 µM): > 1000 nM
viability, T/C [1]: 92.4%
viability, T/C [2]: 91.4%
viability, T/C [3]: 57.9%
viability, T/C [4]: 63%
viability, T/C [5]: 49.7%
viability, T/C [6]: 43%
viability, T/C [7]: 96.8%
viability, T/C [8]: 89.2%
viability, T/C [9]: 70.3%
viability, T/C [10]: 58.1%
viability, T/C [11]: 50.8%
viability, T/C [12]: 48.6%
viability, T/C [13]: 107%
viability, T/C [14]: 83.1%
viability, T/C [15]: 67.3%
viability, T/C [16]: 55.2%
viability, T/C [17]: 55%
viability, T/C [18]: 46.1%
viability, T/C [19]: 93.7%
viability, T/C [20]: 83.2%
viability, T/C [21]: 69.2%
viability, T/C [22]: 52.3%
viability, T/C [23]: 48.4%
viability, T/C [24]: 50.8%
viability, T/C [25]: 107%
viability, T/C [26]: 78.2%
viability, T/C [27]: 60.7%
viability, T/C [28]: 54.8%
viability, T/C [29]: 57.5%
viability, T/C [30]: 48.8%
viability, T/C [31]: 94.8%
viability, T/C [32]: 90.8%
viability, T/C [33]: 62.3%
viability, T/C [34]: 60.3%
viability, T/C [35]: 55%
viability, T/C [36]: 46.3%

CC1COCCN1c1cc(C2(O)CC3CCC(C2)O3)c2cnn(-c3ccn[nH]3)c2n1 (stereo unspecified) + COC1C(OC(N)=O)C(O)C(Oc2ccc3c(O)c(NC(=O)c4ccc(O)c(CC=C(C)C)c4)c(=O)oc3c2C)OC1(C)C
IC50 (second compound 0.0316 µM): 1360 nM
IC50 (second compound 0.1 µM): 811 nM
IC50 (second compound 0.316 µM): 1400 nM
IC50 (second compound 1 µM): 1170 nM
IC50 (second compound 3.16 µM): 939 nM
IC50 (second compound 10 µM): 1440 nM
viability, T/C [3]: 94.4%
viability, T/C [4]: 80.1%
viability, T/C [5]: 67.3%
viability, T/C [6]: 51.5%
viability, T/C (second compound 0.0316 µM, first compound 3.16 µM): 43%
viability, T/C (second compound 0.0316 µM, first compound 10 µM): 34.2%
viability, T/C [9]: 109%
viability, T/C [10]: 79.4%
viability, T/C [11]: 60.9%
viability, T/C [12]: 46.8%
viability, T/C (second compound 0.1 µM, first compound 3.16 µM): 41.4%
viability, T/C (second compound 0.1 µM, first compound 10 µM): 34.2%
viability, T/C [15]: 104%
viability, T/C [16]: 84.8%
viability, T/C [17]: 61%
viability, T/C [18]: 52.1%
viability, T/C (second compound 0.316 µM, first compound 3.16 µM): 49%
viability, T/C (second compound 0.316 µM, first compound 10 µM): 34.5%
viability, T/C [21]: 96.6%
viability, T/C [22]: 80.7%
viability, T/C [23]: 65.3%
viability, T/C [24]: 50.2%
viability, T/C (second compound 1 µM, first compound 3.16 µM): 43.6%
viability, T/C (second compound 1 µM, first compound 10 µM): 40.1%
viability, T/C [27]: 101%
viability, T/C [28]: 83%
viability, T/C [29]: 65%
viability, T/C [30]: 45.8%
viability, T/C (second compound 3.16 µM, first compound 3.16 µM): 45.4%
viability, T/C (second compound 3.16 µM, first compound 10 µM): 34.9%
viability, T/C [33]: 108%
viability, T/C [34]: 83.4%
viability, T/C [35]: 62.5%
viability, T/C [36]: 55.3%
viability, T/C (second compound 10 µM, first compound 3.16 µM): 45.6%
viability, T/C (second compound 10 µM, first compound 10 µM): 36.3%

Cn1ncnc1[C@H]1c2n[nH]c(=O)c3cc(F)cc(c23)N[C@@H]1c1ccc(F)cc1 + Nc1ccc(C#CCN(C(=O)Cc2ncc(C(F)(F)F)cc2C(F)(F)F)c2ccc(F)cc2)nn1
IC50 (second compound 0.0316 µM): > 100 nM
IC50 (second compound 0.1 µM): > 100 nM
IC50 (second compound 0.316 µM): > 100 nM
IC50 (second compound 1 µM): > 100 nM
IC50 (second compound 3.16 µM): > 100 nM
IC50 (second compound 10 µM): > 100 nM
viability, T/C (second compound 0.0316 µM, first compound 0.000316 µM): 102%
viability, T/C (second compound 0.0316 µM, first compound 0.001 µM): 86.8%
viability, T/C [1]: 89.6%
viability, T/C [2]: 97.1%
viability, T/C [3]: 87%
viability, T/C [4]: 82.2%
viability, T/C (second compound 0.1 µM, first compound 0.000316 µM): 106%
viability, T/C (second compound 0.1 µM, first compound 0.001 µM): 89.1%
viability, T/C [7]: 87.5%
viability, T/C [8]: 101%
viability, T/C [9]: 96%
viability, T/C [10]: 82.8%
viability, T/C (second compound 0.316 µM, first compound 0.000316 µM): 102%
viability, T/C (second compound 0.316 µM, first compound 0.001 µM): 91.6%
viability, T/C [13]: 103%
viability, T/C [14]: 85.4%
viability, T/C [15]: 92.6%
viability, T/C [16]: 77.5%
viability, T/C (second compound 1 µM, first compound 0.000316 µM): 102%
viability, T/C (second compound 1 µM, first compound 0.001 µM): 102%
viability, T/C [19]: 89.4%
viability, T/C [20]: 98.8%
viability, T/C [21]: 104%
viability, T/C [22]: 76.5%
viability, T/C (second compound 3.16 µM, first compound 0.000316 µM): 90.7%
viability, T/C (second compound 3.16 µM, first compound 0.001 µM): 98%
viability, T/C [25]: 105%
viability, T/C [26]: 94.7%
viability, T/C [27]: 91.7%
viability, T/C [28]: 89.5%
viability, T/C (second compound 10 µM, first compound 0.000316 µM): 103%
viability, T/C (second compound 10 µM, first compound 0.001 µM): 106%
viability, T/C [31]: 108%
viability, T/C [32]: 95.2%
viability, T/C [33]: 101%
viability, T/C [34]: 99.6%
